Measurements as given in patent US20060128759A1, “Substituted isoxazole derivatives and their use in pharmaceutics” (MERCKLE GMBH, priority 2002, published 2006).

Each compound was assayed against p38α (Homo sapiens, UniProt Q16539) (assay: Kinase assay (phosphorylation of ATF2 by activated p38α, ELISA readout at 405 nm)). Details: activated p38α, ATF2 substrate, 100 μM ATP, 37° C., 1 hour; read-out: IC50 p 38.
Format: biochemical
Protocol: • 1) The mononuclear cells (PBMCs) from human potassium-EDTA whole blood, diluted 1:3, are isolated by density gradient centrifugation (Histopaque®-1.077). The cells are washed twice with DPBS buffer, resuspended in macrophage SFM medium and adjusted to a cell count of 1*10^6 cells/ml. • The resulting PBMCs suspension (samples of in each case 390 μl) and the test substance are preincubated at 37° C. in a CO2 incubator (5% CO2; 95% moisture-saturated air) for 15 min. The samples are then stimulated with in each case 1 μl/ml of LPS (E. coli 026:B6) at 37° C. in a CO2 incubator (5% CO2; 95% moisture-saturated air) for 4 hours. The reaction is stopped by placing the samples on ice, adding DPBS buffer and then centrifuging at 15 880*g for 12 min. The amount of IL-1β and TNFα in the plasma supernatant is then determined by ELISA. • 2) Kinase assay • At 37° C., microtiter plates were coated for one hour with 50 μl of ATF2 solution (20 μg/ml). The plates were washed three times with water, and 50 μl of kinase mixture (50 mM tris-HCl 10 mM MgCl2, 10 mM β-glycerol phosphate, 10 μg/ml of BSA, 1 mM DTT, 100 μM ATP, 100 μM Na3VO4, 10 ng of activated p38α) with or without inhibitor were added into the wells, and the plates were incubated at 37° C. for 1 hour. The plates were washed three times and then incubated with phosphorus-ATF-2 antibody at 37° C. for one hour. The plates were once more washed three times, and goat-antirabbit IgG labeled with alkaline phosphatase was added at 37° C. for one hour (to fix the antibody-phosphorylated protein/substrate complex). The plates were washed three times, and the alkaline phosphatase/substrate solution (3 mM 4-NPP, 50 mM NaHCO3, 50 mM MgCl2, 100 μl/well) was added at 37° C. for 1.5 hours. […] The IC50 values were calculated.

p38α, sequence (Q16539 whole entry): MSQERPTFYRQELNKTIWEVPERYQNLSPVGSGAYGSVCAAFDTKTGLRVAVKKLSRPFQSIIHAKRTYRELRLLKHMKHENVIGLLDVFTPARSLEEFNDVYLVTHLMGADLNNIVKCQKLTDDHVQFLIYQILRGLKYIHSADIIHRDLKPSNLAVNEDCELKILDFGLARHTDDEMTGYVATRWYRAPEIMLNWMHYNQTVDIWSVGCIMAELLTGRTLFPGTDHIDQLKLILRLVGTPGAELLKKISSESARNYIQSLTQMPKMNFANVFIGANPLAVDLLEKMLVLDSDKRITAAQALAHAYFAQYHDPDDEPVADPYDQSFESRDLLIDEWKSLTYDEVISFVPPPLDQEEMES

Compound | IC50 [µM]
4-[5-(ethoxyphenyl)-4-(4-fluorophenyl)isoxazol-3-yl]pyridine [Compound 11] | 10
Cc1onc(-c2ccncc2)c1-c1ccc(F)cc1 [Compound 1, 4-[4-(4-fluorophenyl)-5-methylisoxazol-3-yl]pyridine] | 67.5
CC(=O)Nc1cc(-c2onc(-c3ccncc3)c2-c2ccc(F)cc2)ccn1 [Compound 3, N-{4-[4-(4-fluorophenyl)-3-pyridin-4-ylisoxazol-5-yl]pyridine-2-yl}acetamide] | 30
Fc1ccc(-c2c(-c3ccncc3)noc2C2CC2)cc1 [Compound 7, 4-[5-cyclopropyl-4-(4-fluorophenyl)isozazol-3-yl]pyridine] | 28
CN(C)c1ccc(-c2onc(-c3ccncc3)c2-c2ccc(F)cc2)cc1 [Compound 8, {4-[4-(4-fluorophenyl)-3-pyridin-4-ylisoxazol-5-yl]phenyl}dimethylamine] | 27

Other lines, results leading:

IC50 [µM] | Compound
22 | Fc1ccc(-c2c(-c3ccncc3)noc2-c2ccccc2)cc1 [Compound 5, 4-[4-(4-fluorophenyl)-5-phenylisoxazol-3-yl]pyridine]
22 | Fc1ccc(-c2c(-c3ccncc3)noc2-c2ccco2)cc1 [Compound 6, 4-[4-(4-fluorophenyl)-5-furan-2-ylisoxazol-3-yl]pyridine]
10 | Fc1ccc(-c2c(-c3ccncc3)noc2N2CCCCC2)cc1 [Compound 9, 4-[4-(4-fluorophenyl)-5-piperidin-1-ylisoxazol-3-yl]pyridine]
10 | COc1ccc(-c2onc(-c3ccncc3)c2-c2ccc(F)cc2)cc1 [Compound 10, 4-[4-(4-fluorophenyl)-5-(4-methoxyphenyl)isoxazol-3-yl]pyridine]
4 | CN(C)Cc1onc(-c2ccncc2)c1-c1ccc(F)cc1 [Compound 4, [4-(4-fluorophenyl)-3-pyridin-4-ylisoxazol-5-ylmethyl]dimethylamine]

Same assay, conditions: at 10^−5 mol/l; read-out: % inhibition of p 38

inhibition at 10 µM [%] | Compound
43.6 | Fc1ccc(-c2noc(-c3ccc(F)cc3)c2-c2ccncc2)cc1 [Compound 14, 4-[3,5-Bis(4-fluorophenyl)isoxazol-4-yl]pyridine]
